Laboratory results taken from patent publication US8377991B2, “Trans-clomiphene for metabolic syndrome” (priority 2007, dated 2013).
Structures can show the parent of a compound that is named as a salt.

What was measured:
[1] = in vivo
Protocol: Adult, male, Baboons were given 1.5 mg/kg of Clomid (clomiphene citrate), Enclomid (trans-Clomiphene) or Zuclomid (cis-clomiphene) for 12 consecutive days. The samples analyzed were sera taken on the day of first treatment before being given test article (day 0), after 12 days of treatment (day 12) and 7 days after the last treatment (end or wash-out).

total serum testosterone = test: Serum testosterone in male baboons given Clomid, Enclomid or Zuclomid; assay type: in vivo; conditions: for effect on total serum testosterone: 1.5 mg/kg for 12 days, vs baseline or day 0
Excerpt: There were significant increases in total serum testosterone in the group receiving Enclomid. There were no differences among groups in the baseline period or at day 0. There were also no differences among the three groups 7 days after treatment (the washout period). However, Enclomid produced higher levels of testosterone compared to Clomid and Zuclomid on day 6 (p=0.03 and p=0.00002 respectively) and compared to Zuclomid on day 12 (p=0.047). […] Enclomid was clearly better and more consistent than Clomid itself and Zuclomid was ineffective.

serum LH, FSH, PRL = test: Body weight and serum LH, FSH, PRL in male baboons; assay type: in vivo; conditions: during the study
Excerpt: There were no changes in serum LH or FSH. […] There was also no change in body weight during the 12 day study.

[2] = Androxal vs Androgel study: other clinical chemistry (DHT/TT, triglycerides) and side effects; assay type: in vivo; conditions: hypogonadal men, after two weeks of therapy; non-dose dependent
total testosterone = conditions: hypogonadal men; 50 mg dose
Protocol: (§1) A placebo controlled challenge study was conducted at the Advanced Biological Research, Inc. (ABR) Clinical Research Center in Hackensack, N.J. to compare orally administered Androxal™ (trans-clomiphene) to Androgel® in hypogonadal men.
(§2) Half of the men in each of the Androxal™ and placebo arms were randomized into cohorts that underwent in-clinic sessions on days 1 and 14 to determine pharmacokinetic parameters for Androxal™ as well as cyclical changes in testosterone. The placebo and Androxal™ doses were administered in a double blind fashion. The Androgel® cream was administered in an open label fashion. Half of the Androgel® patients underwent in-clinic sessions similar to the other patients in the study. Following the two week drug exposure, patients were followed for an additional seven to ten days to determine the status of their testosterone levels.

serum LH and FSH = conditions: hypogonadal male subjects, two week treatment
Protocol: as §1, §2

fasting glucose levels = conditions: patients with BMI>26; 50 mg dose; at the 3 and 4.5 month periods
Protocol: A placebo controlled study was conducted to determine the effects of orally administered Androxal™ (trans-clomiphene) and Androgel® on blood glucose levels.
The study enrolled hypogonadal men (testosterone less than 300 ng/dl) with a broad range of body mass indices (BMI). […] The placebo and Androxal™ doses were administered in a double blind fashion. The Androgel® cream was administered in an open label fashion. Fasting glucose levels were monitored in the patients immediately prior to treatment (baseline) and at regular intervals during the study.

Row | SMILES | serum alkaline phosphatase (ALP) [1] | serum carbon dioxide [1] | effects on the red blood cell population ([1]; 1.5 mg/kg) | increase in serum glucose ([1]; 1.5 mg/kg) | effect on total serum testosterone (total serum testosterone) | total serum testosterone after cessation of treatment (total serum testosterone; day 12 to day 18 (washout)) | serum prolactin (PRL) (serum LH, FSH, PRL) | reduction in triglycerides, average decrease [2] [%] | BUN and BUN/creatinine [1] | percent of granulocytes in the blood [1] | platelet count [1] | counts of eosinophiles ([1]; 1.5 mg/kg) | mean total testosterone after 15 days (total testosterone) [ng/dL] | serum levels of FSH (serum LH and FSH) | reduction in serum glucose from baseline (fasting glucose levels) [mg/dL] | ALT/SGPT [1]
1 | CCN(CC)CCOc1ccc(/C(=C(/Cl)c2ccccc2)c2ccccc2)cc1 [Zuclomid, cis-clomiphene] | not elevated | higher than reference values on day 12 | substantive effects on the red blood cell population | within the normal range |  |  |  |  |  |  |  |  |  |  |  | 
2 | CCN(CC)CCOc1ccc(/C(=C(\Cl)c2ccccc2)c2ccccc2)cc1 [Enclomid, trans-clomiphene] | decreased in value |  | substantive effects on the red blood cell population | no increases with treatment | significantly and statistically raised total serum testosterone on days 6 and 12 | significant drop in the level of total serum testosterone between day 12 and day 18 | decrease in serum prolactin (PRL) | 19.1 | altered during the study | strong effect of Enclomid on lowering the percent of granulocytes | pushed the platelet count to its normal male level | raising the counts of lymphocytes and eosinophiles | 589 ± 172 | boosts serum FSH | ~24 | 
3 | CCN(CC)CCOc1ccc(C(=C(Cl)c2ccccc2)c2ccccc2)cc1 [Clomid, clomiphene citrate] |  | higher than reference values on day 12 |  | within the normal range | more variable total testosterone levels on day 6 and later |  |  |  | altered during the study |  |  |  |  |  |  | out of range low at the end of the study
